Experimental findings from patent US20250084095A1, “Aminopyrimidine Derivatives as Cyclin-Dependent Kinase Inhibitors” (Accutar Biotechnology Inc., priority 2023, published 2025) are described below.

The term IC50 denotes the concentration that inhibits the measured activity by half.

The test system of the experiment is Phospho-Rb (Ser807/811) in MCF7 cells. In words: Phospho-Rb expression inhibition in MCF7 cells quantified by in cell Western. The class given is cell-based, human. Particulars: Homo sapiens, MCF7, 24 h, 24 hours, in cell Western, read-out: MCF7 pRb IC50. An outline of the steps: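 MCF7 cells were seeded at 20,000/well, grown overnight, then treated 24 h at 37 °C with compound dilutions (0.1% DMSO from 1000× stocks). Fixed cells were co-stained for phospho-Rb Ser807/811 and total Rb. Near-infrared dual-channel in-cell Western imaging was the read-out.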
As to `Cc1nc2c(F)cc(-c3nc(N[C@@H]4C[C@H]5CO[C@H](O5)[C@H]4O)ncc3Cl)cc2n1C(C)C` [Compound 25, (1S,3R,4S,5R)-3-((5-chloro-4-(4-fluoro-1-isopropyl-2-methyl-1H-benzo[d]imidazol-6-yl)pyrimidin-2-yl)amino)-6,8-dioxabicyclo[3.2.1]octan-4-ol], the concentration for half-maximal inhibition (IC50) lay within 0.04 to 0.15 µM.
Take `Cc1c(C)n(C(C)C)c2cc(-c3nc(N[C@@H]4C[C@H]5CO[C@H](O5)[C@H]4O)ncc3Cl)ccc2c1=O` [Compound 191, 7-(5-chloro-2-(((1S,3R,4S,5R)-4-hydroxy-6,8-dioxabicyclo[3.2.1]octan-3-yl)amino)pyrimidin-4-yl)-1-isopropyl-2,3-dimethylquinolin-4(1H)-one]: the IC50 lay in the range of 0.04 to 0.15 µM.
With `CNCc1c(C)c(=O)c2ccc(-c3nc(N[C@@H]4C[C@H]5CO[C@H](O5)[C@H]4O)ncc3F)cc2n1C(C)C` [Compound 194, 7-(5-fluoro-2-(((1S,3R,4S,5R)-4-hydroxy-6,8-dioxabicyclo[3.2.1]octan-3-yl)amino)pyrimidin-4-yl)-1-isopropyl-3-methyl-2-((methylamino)methyl)quinolin-4(1H)-one] the figure was 0.04 to 0.15 µM; with `Cc1c(CN(C)C)n(C(C)C)c2cc(-c3nc(N[C@@H]4C[C@H]5CO[C@H](O5)[C@H]4O)ncc3F)ccc2c1=O` [Compound 195, 2-((dimethylamino)methyl)-7-(5-fluoro-2-(((1S,3R,4S,5R)-4-hydroxy-6,8-dioxabicyclo [3.2.1]octan-3-yl)amino)pyrimidin-4-yl)-1-isopropyl-3-methylquinolin-4(1H)-one], 0.04 to 0.15 µM.
Regarding `Cc1c(CN2CCC2)n(C(C)C)c2cc(-c3nc(N[C@@H]4C[C@H]5CO[C@H](O5)[C@H]4O)ncc3F)ccc2c1=O` [Compound 196, 2-(azetidin-1-ylmethyl)-7-(5-fluoro-2-(((1S,3R,4S,5R)-4-hydroxy-6,8-dioxabicyclo[3.2.1]octan-3-yl)amino)pyrimidin-4-yl)-1-isopropyl-3-methylquinolin-4(1H)-one], the half-inhibitory concentration (IC50) lay within 0.04 to 0.15 µM.
Under `Cc1c(CN2CC(F)C2)n(C(C)C)c2cc(-c3nc(N[C@@H]4C[C@H]5CO[C@H](O5)[C@H]4O)ncc3F)ccc2c1=O` [Compound 197, 7-(5-fluoro-2-(((1S,3R,4S,5R)-4-hydroxy-6,8-dioxabicyclo[3.2.1]octan-3-yl)amino)pyrimidin-4-yl)-2-((3-fluoroazetidin-1-yl)methyl)-1-isopropyl-3-methylquinolin-4(1H)-one] stands 0.04 to 0.15 µM; under `Cc1c(CN2[C@@H](C)COC[C@@H]2C)n(C(C)C)c2cc(-c3nc(N[C@@H]4C[C@H]5CO[C@H](O5)[C@H]4O)ncc3F)ccc2c1=O` [Compound 199, 2-(((3S,5S)-3,5-dimethylmorpholino)methyl)-7-(5-fluoro-2-(((1S,3R,4S,5R)-4-hydroxy-6,8-dioxabicyclo[3.2.1]octan-3-yl)amino)pyrimidin-4-yl)-1-isopropyl-3-methylquinolin-4(1H)-one], no more than 0.04 µM; under `CC(C)n1c(CN2[C@@H](C)COC[C@@H]2C)c(F)c(=O)c2ccc(-c3nc(N[C@@H]4C[C@H]5CO[C@H](O5)[C@H]4O)ncc3Cl)cc21` [Compound 201, 7-(5-chloro-2-(((1S,3R,4S,5R)-4-hydroxy-6,8-dioxabicyclo[3.2.1]octan-3-yl)amino)pyrimidin-4-yl)-2-(((3S,5S)-3,5-dimethylmorpholino)methyl)-3-fluoro-1-isopropylquinolin-4(1H)-one], 0.04 to 0.15 µM.
Turning to `CC(C)n1c(CN2CC[C@@H](F)C2)c(F)c(=O)c2ccc(-c3nc(N[C@@H]4C[C@H]5CO[C@H](O5)[C@H]4O)ncc3F)cc21` [Compound 202, 3-fluoro-7-(5-fluoro-2-(((1S,3R,4S,5R)-4-hydroxy-6,8-dioxabicyclo[3.2.1]octan-3-yl)amino)pyrimidin-4-yl)-2-(((R)-3-fluoropyrrolidin-1-yl)methyl)-1-isopropylquinolin-4(1H)-one], the IC50 was in the range of 0.15 to 1 µM.
`CC(C)n1c(CN2[C@@H](C)COC[C@@H]2C)c(C(F)F)c(=O)c2ccc(-c3nc(N[C@@H]4C[C@H]5CO[C@H](O5)[C@H]4O)ncc3Cl)cc21` [Compound 204, 7-(5-chloro-2-(((1S,3R,4S,5R)-4-hydroxy-6,8-dioxabicyclo[3.2.1]octan-3-yl)amino)pyrimidin-4-yl)-3-(difluoromethyl)-2-(((3S,5S)-3,5-dimethylmorpholino)methyl)-1-isopropylquinolin-4(1H)-one]: the concentration for half-maximal inhibition (IC50) fell in the range of 0.04 to 0.15 µM.
With `CC(C)n1c(CN2[C@@H](C)COC[C@@H]2C)cc(=O)c2ccc(-c3nc(N[C@@H]4C[C@H]5CO[C@H](O5)[C@H]4O)ncc3Cl)cc21` [Compound 205, 7-(5-chloro-2-(((1S,3R,4S,5R)-4-hydroxy-6,8-dioxabicyclo[3.2.1]octan-3-yl)amino)pyrimidin-4-yl)-2-(((3S,5S)-3,5-dimethylmorpholino)methyl)-1-isopropylquinolin-4(1H)-one] the figure was 0.04 to 0.15 µM; with `Cc1c(CN2[C@@H](C)COC[C@@H]2C)n(C(C)C)c2cc(-c3nc(N[C@@H]4C[C@H]5CO[C@H](O5)[C@H]4O)ncc3Cl)ccc2c1=O` [Compound 206, 7-(5-chloro-2-(((1S,3R,4S,5R)-4-hydroxy-6,8-dioxabicyclo[3.2.1]octan-3-yl)amino)pyrimidin-4-yl)-2-(((3S,5S)-3,5-dimethylmorpholino)methyl)-1-isopropyl-3-methylquinolin-4(1H)-one], no more than 0.04 µM; with `CC(C)n1c([C@@H]2CC2(F)F)nc2c(F)cc(-c3nc(N[C@@H]4C[C@H]5CO[C@H](O5)[C@H]4O)ncc3Cl)cc21` [Compound 216, (1S,3R,4S,5R)-3-((5-chloro-4-(2-((S)-2,2-difluorocyclopropyl)-4-fluoro-1-isopropyl-1H-benzo[d]imidazol-6-yl)pyrimidin-2-yl)amino)-6,8-dioxabicyclo[3.2.1]octan-4-ol], no more than 0.04 µM.
Consider `Cc1c(-c2nc(N[C@@H]3C[C@H]4CO[C@H](O4)[C@H]3O)ncc2Cl)sc2c(C(C)C)cn(C)c(=O)c12` [Compound 223, 2-(5-chloro-2-(((1S,3R,4S,5R)-4-hydroxy-6,8-dioxabicyclo[3.2.1]octan-3-yl)amino)pyrimidin-4-yl)-7-isopropyl-3,5-dimethylthieno[3,2-c]pyridin-4(5H)-one], for which the IC50 was no more than 0.04 µM.
As for `Cc1c(-c2nc(N[C@@H]3C[C@H]4CO[C@H](O4)[C@H]3O)ncc2C(F)F)sc2c(C(C)C)cn(C)c(=O)c12` [Compound 227, 2-(5-(difluoromethyl)-2-(((1S,3R,4S,5R)-4-hydroxy-6,8-dioxabicyclo[3.2.1]octan-3-yl)amino)pyrimidin-4-yl)-7-isopropyl-3,5-dimethylthieno[3,2-c]pyridin-4(5H)-one], the IC50 was no more than 0.04 µM.
`CCn1cc(C(C)C)c2sc(-c3nc(N[C@@H]4C[C@H]5CO[C@H](O5)[C@H]4O)ncc3Cl)c(C)c2c1=O` [Compound 230, 5-ethyl-2-(5-chloro-2-(((1S,3R,4S,5R)-4-hydroxy-6,8-dioxabicyclo[3.2.1]octan-3-yl)amino)pyrimidin-4-yl)-7-isopropyl-3-methylthieno[3,2-c]pyridin-4(5H)-one]: the IC50 was no more than 0.04 µM.
`CC(C)(O)c1cnc2c(F)cc(-c3nc(N[C@@H]4C[C@H]5CO[C@H](O5)[C@H]4O)ncc3Cl)cc2c1Cl` [Compound 252, (1S,3R,4S,5R)-3-((5-chloro-4-(4-chloro-8-fluoro-3-(2-hydroxypropan-2-yl)quinolin-6-yl)pyrimidin-2-yl)amino)-6,8-dioxabicyclo[3.2.1]octan-4-ol]: the IC50 was no more than 0.04 µM.
Under `CC(C)(O)c1cnc2c(F)cc(-c3nc(N[C@@H]4C[C@H]5CO[C@H](O5)[C@H]4O)ncc3F)cc2c1Cl` [Compound 255, (1S,3R,4S,5R)-3-((4-(4-chloro-8-fluoro-3-(2-hydroxypropan-2-yl)quinolin-6-yl)-5-fluoropyrimidin-2-yl)amino)-6,8-dioxabicyclo[3.2.1]octan-4-ol] stands no more than 0.04 µM; under `Cc1c(C(C)(C)O)cnc2c(F)cc(-c3nc(N[C@@H]4C[C@H]5CO[C@H](O5)[C@H]4O)ncc3F)cc12` [Compound 256, (1S,3R,4S,5R)-3-((5-fluoro-4-(8-fluoro-3-(2-hydroxypropan-2-yl)-4-methylquinolin-6-yl)pyrimidin-2-yl)amino)-6,8-dioxabicyclo[3.2.1]octan-4-ol], no more than 0.04 µM.
Regarding `Cc1c(C(C)(C)O)cnc2c(F)cc(-c3nc(N[C@@H]4C[C@H]5CO[C@H](O5)[C@H]4O)ncc3Cl)cc12` [Compound 257, (1S,3R,4S,5R)-3-((5-chloro-4-(8-fluoro-3-(2-hydroxypropan-2-yl)-4-methylquinolin-6-yl)pyrimidin-2-yl)amino)-6,8-dioxabicyclo[3.2.1]octan-4-ol], the IC50 was no more than 0.04 µM.
Under `Cc1c(-c2nc(N[C@@H]3C[C@H]4CO[C@H](O4)[C@H]3O)ncc2Cl)sc2c(C(C)C)cnnc12` [Compound 259, (1S,3R,4S,5R)-3-((5-chloro-4-(4-isopropyl-7-methylthieno[3,2-c]pyridazin-6-yl)pyrimidin-2-yl)amino)-6,8-dioxabicyclo[3.2.1]octan-4-ol] stands no more than 0.04 µM; under `COC(=O)N1CC[C@@H](c2nc3c(F)cc(-c4nc(N[C@@H]5C[C@H]6CO[C@H](O6)[C@H]5O)ncc4F)cc3n2C(C)C)C1` [Compound 265, methyl (R)-3-(4-fluoro-6-(5-fluoro-2-(((1S,3R,4S,5R)-4-hydroxy-6,8-dioxabicyclo[3.2.1]octan-3-yl)amino)pyrimidin-4-yl)-1-isopropyl-1H-benzo[d]imidazol-2-yl)pyrrolidine-1-carboxylate], 0.04 to 0.15 µM.
Under `CC(C)n1c([C@@H]2CCOC2)nc2c(F)cc(-c3nc(N[C@@H]4C[C@H]5CO[C@H](O5)[C@H]4O)ncc3Cl)cc21` [Compound 268, (1S,3R,4S,5R)-3-((5-chloro-4-(4-fluoro-1-isopropyl-2-((S)-tetrahydrofuran-3-yl)-1H-benzo[d]imidazol-6-yl)pyrimidin-2-yl)amino)-6,8-dioxabicyclo[3.2.1]octan-4-ol] stands no more than 0.04 µM.
